Measurements reported in patent US10800792B2, “Inhibitors of Bruton's tyrosine kinase and method of their use” (JANSSEN PHARMACEUTICA NV, priority 2015, dated 2020).

The molecules below were run against unphosphorylated-BTK kinase domain (UP-BTK), GST-tagged human BTK (389-659aa) (Homo sapiens (Human), UniProt Q06187) (assay: BTK kinase Lanthascreen binding assay). Settings: Lanthascreen tracer competition, 60 minutes incubation; pIC50 = negative log of the IC50 in molar.
unphosphorylated-BTK kinase domain (UP-BTK), GST-tagged human BTK (389-659aa), sequence (Q06187 389-659): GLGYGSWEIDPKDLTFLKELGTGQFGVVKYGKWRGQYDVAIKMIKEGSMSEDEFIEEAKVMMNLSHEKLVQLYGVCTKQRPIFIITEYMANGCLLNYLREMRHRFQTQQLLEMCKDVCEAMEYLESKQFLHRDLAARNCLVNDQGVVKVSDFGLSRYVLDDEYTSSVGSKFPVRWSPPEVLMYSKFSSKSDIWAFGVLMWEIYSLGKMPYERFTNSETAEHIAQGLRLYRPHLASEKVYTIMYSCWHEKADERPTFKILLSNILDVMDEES
Procedure, shortened: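 Compound binding to the unphosphorylated kinase domain was monitored by displacement of a fluorescently labelled tracer in a Lanthascreen format. Potency is given as pIC50, the negative log of the molar IC50.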
For Cc1cc(Oc2ccccc2)ccc1N1C(=O)Nc2c(C(=O)N[C@@H]3CCN(C#N)C3)sc3nccc1c23 [Example 837, (R)—N-(1-Cyanopyrrolidin-3-yl)-5-(2-methyl-4-phenoxyphenyl)-4-oxo-4,5-dihydro-3H-1-thia-3,5,8-triazaacenaphthylene-2-carboxamide], the “BTK_I_binding pIC50” value was 7.9.
In the case of Cc1cc(Oc2ccccc2)ccc1N1C(=O)Nc2c(C(=O)NC3CCN(C#N)CC3)sc3nccc1c23 [Example 872, N-(1-Cyanopiperidin-4-yl)-5-(2-methyl-4-phenoxyphenyl)-4-oxo-4,5-dihydro-3H-1-thia-3,5,8-triazaacenaphthylene-2-carboxamide], the “BTK_I_binding pIC50” value is reported as 7.2.
In the case of Cc1ccc(Oc2ccccc2)cc1N1C(=O)Nc2c(C(=O)N[C@@H]3CCCN(C(=O)/C(C#N)=C/C4CC4)C3)sc3nccc1c23 [Example 859, (R,E)-N-(1-(2-Cyano-3-cyclopropylacryloyl)piperidin-3-yl)-5-(2-methyl-5-phenoxyphenyl)-4-oxo-4,5-dihydro-3H-1-thia-3,5,8-triazaacenaphthylene-2-carboxamide], the “BTK_I_binding pIC50” value is reported as 7.4.
In the case of Cc1ccccc1N1C(=O)Nc2c(C(=O)NC3CCCN(C(=O)/C(C#N)=C/C4CC4)C3)sc3nccc1c23 (stereo not shown) [Example 886, (E)-N-(1-(2-Cyano-3-cyclopropylacryloyl)piperidin-3-yl)-4-oxo-5-(o-tolyl)-4,5-dihydro-3H-1-thia-3,5,8-triazaacenaphthylene-2-carboxamide], the “BTK_I_binding pIC50” value is reported as 7.0.
For Cc1cc(Oc2ccccc2)ccc1N1C(=O)Nc2c(NC(=O)C3CCCN(C(=O)CC#N)C3)sc3nccc1c23 (stereo not shown) [Example 817, 1-(2-Cyanoacetyl)-N-(5-(2-methyl-4-phenoxyphenyl)-4-oxo-4,5-dihydro-3H-1-thia-3,5,8-triazaacenaphthylen-2-yl)piperidine-3-carboxamide], the “BTK_I_binding pIC50” value was 6.0.
With Cc1cc(Oc2ccccc2)ccc1N1C(=O)Nc2c(C(=O)NC3CCCN(C(=O)/C(C#N)=C/C(C)(C)C)C3)sc3nccc1c23 (stereo not shown) [Example 897, (E)-N-(1-(2-Cyano-4,4-dimethylpent-2-enoyl)piperidin-3-yl)-5-(2-methyl-4-phenoxyphenyl)-4-oxo-4,5-dihydro-3H-1-thia-3,5,8-triazaacenaphthylene-2-carboxamide] the “BTK_I_binding pIC50” value was 6.8.
C=CC(=O)N1CC[C@@H](NC(=O)c2sc3nccc4c3c2NC(=O)N4c2cnc(Oc3ccccc3)cn2)C1 [Example 699, (R)—N-(1-Acryloylpyrrolidin-3-yl)-4-oxo-5-(5-phenoxypyrazin-2-yl)-4,5-dihydro-3H-1-thia-3,5,8-triazaacenaphthylene-2-carboxamide] was tested, and the “BTK_I_binding pIC50” value was 7.2.
C=CC(=O)N1CCC[C@@H](NC(=O)c2sc3nccc4c3c2NC(=O)N4c2ccc(CC(C)C)cc2)C1 [Example 750, (R)—N-(1-Acryloylpiperidin-3-yl)-5-(4-isobutylphenyl)-4-oxo-4,5-dihydro-3H-1-thia-3,5,8-triazaacenaphthylene-2-carboxamide] was tested, and the “BTK_I_binding pIC50” value was 6.6.
For COCCC(=O)N1CCC[C@@H](NC(=O)c2sc3nccc4c3c2NC(=O)N4c2ccc(Oc3ccccc3)cc2C)C1 [Example 841, (R)—N-(1-(3-Methoxypropanoyl)piperidin-3-yl)-5-(2-methyl-4-phenoxyphenyl)-4-oxo-4,5-dihydro-3H-1-thia-3,5,8-triazaacenaphthylene-2-carboxamide], the “BTK_I_binding pIC50” value was 7.7.

Same assay, conditions: Lanthascreen tracer competition, 60 minutes incubation; pIC50 = negative log of the IC50 in molar; read-out: BTK_I_binding pIC50 (converted)
With O=C(N[C@@H]1CCCNC1)c1sc2nccc3c2c1NC(=O)N3c1cccc(C2CCCCC2)c1 [Example 629, (R)-5-(3-Cyclohexylphenyl)-4-oxo-N-(piperidin-3-yl)-4,5-dihydro-3H-1-thia-3,5,8-triazaacenaphthylene-2-carboxamide] the IC50 was 1260 nM.
Cc1cc(Oc2ccccc2)ncc1N1C(=O)Nc2c(C(=O)N[C@@H]3COC[C@@H]3N)sc3nccc1c23 (racemic) [Example 707] was tested, and the IC50 was 200 nM.

Same assay, conditions: pIC50 = negative log of the IC50 in molar; 60 minutes incubation, 50 nM Tracer 236
In the case of C=CC(=O)N1CC[C@@H](NC(=O)c2sc3nccc4c3c2NC(=O)N4c2ccc(OC3CCOCC3)cc2C)C1 [Example 270, (R)—N-(1-Acryloylpyrrolidin-3-yl)-5-(2-methyl-4-((tetrahydro-2H-pyran-4-yl)oxy)phenyl)-4-oxo-4,5-dihydro-3H-1-thia-3,5,8-triazaacenaphthylene-2-carboxamide], the “BTK_I_binding pIC50” value is reported as 6.3.
In the case of C=CC(=O)N1CCC[C@@H](NC(=O)c2sc3nccc4c3c2NC(=O)N4c2c(C)cc(Oc3ccccc3)cc2F)C1 [Example 20, (R)—N-(1-Acryloylpiperidin-3-yl)-5-(2-fluoro-6-methyl-4-phenoxyphenyl)-4-oxo-4,5-dihydro-3H-1-thia-3,5,8-triazaacenaphthylene-2-carboxamide], the “BTK_I_binding pIC50” value is reported as 7.4.
In the case of COc1ccccc1Oc1ccc(N2C(=O)Nc3c(C(=O)N[C@@H]4CCCN(C)C4)sc4nccc2c34)c(C)c1 [Example 73, (R)-5-(4-(2-Methoxyphenoxy)-2-methylphenyl)-N-(1-methylpiperidin-3-yl)-4-oxo-4,5-dihydro-3H-1-thia-3,5,8-triazaacenaphthylene-2-carboxamide], the “BTK_I_binding pIC50” value is reported as 6.8.
With C=C(C)C(=O)N1CCC[C@@H](NC(=O)c2sc3nccc4c3c2NC(=O)N4c2ccc(Oc3ccccc3)cc2C)C1 [Example 204, (R)—N-(1-Methacryloylpiperidin-3-yl)-5-(2-methyl-4-phenoxyphenyl)-4-oxo-4,5-dihydro-3H-1-thia-3,5,8-triazaacenaphthylene-2-carboxamide] the “BTK_I_binding pIC50” value was 6.9.
Cc1cc(Oc2ccccc2)ccc1N1C(=O)Nc2c(C(=O)N[C@@H]3CCCN(C(=O)[C@H]4CCOC4)C3)sc3nccc1c23 [Example 207, 5-(2-Methyl-4-phenoxyphenyl)-4-oxo-N—((R)-1-((S)-tetrahydrofuran-3-carbonyl)piperidin-3-yl)-4,5-dihydro-3H-1-thia-3,5,8-triazaacenaphthylene-2-carboxamide] was tested, and the “BTK_I_binding pIC50” value was 7.1.
With Cc1cc(Oc2ccccc2)ccc1N1C(=O)Nc2c(C(=O)N[C@@H]3C[C@H](F)CN(C)C3)sc3nccc1c23 [Example 164, N-((3R,5S)-5-Fluoro-1-methylpiperidin-3-yl)-5-(2-methyl-4-phenoxyphenyl)-4-oxo-4,5-dihydro-3H-1-thia-3,5,8-triazaacenaphthylene-2-carboxamide] the “BTK_I_binding pIC50” value was 6.8.
With Cc1cc(Oc2ccccc2)ccc1N1C(=O)Nc2c(C(=O)N[C@@H]3CCCN(C(=O)CCO)C3)sc3nccc1c23 (single isomer, unassigned) [Example 99, (R)—N-(1-(3-Hydroxypropanoyl)piperidin-3-yl)-5-(*S)-(2-methyl-4-phenoxyphenyl)-4-oxo-4,5-dihydro-3H-1-thia-3,5,8-triazaacenaphthylene-2-carboxamide] the “BTK_I_binding pIC50” value was 7.6.

Same assay, conditions: pIC50 = negative log of the IC50 in molar; 60 minutes incubation, 50 nM Tracer 236; read-out: BTK_I_binding pIC50 (converted)
With Cc1cc(Oc2ccccc2)ccc1N1C(=O)Nc2c(C(=O)NC3COCCN(C#N)C3)sc3nccc1c23 (stereo not shown) [Example 31, N-(4-Cyano-1,4-oxazepan-6-yl)-5-(2-methyl-4-phenoxyphenyl)-4-oxo-4,5-dihydro-3H-1-thia-3,5,8-triazaacenaphthylene-2-carboxamide] the IC50 was 20 nM.

Same assay, conditions: unphosphorylated-BTK kinase domain, 50 nM Tracer 236, 60 minutes; pIC50 = negative log of the IC50 in molar
With C=CC(=O)N1CCC[C@@H](NC(=O)c2sc3nccc4c3c2NC(=O)N4C(C)C)C1 [Example 357, (R)—N-(1-Acryloylpiperidin-3-yl)-5-isopropyl-4-oxo-4,5-dihydro-3H-1-thia-3,5,8-triazaacenaphthylene-2-carboxamide] the “BTK_I_binding pIC50” value was 5.1.
In the case of CN(C)C/C=C/C(=O)N1CCC[C@@H](NC(=O)c2sc3nccc4c3c2NC(=O)N4c2ccc(Oc3ccccc3)c(Cl)c2)C1 [Example 541, (R,E)-5-(3-Chloro-4-phenoxyphenyl)-N-(1-(4-(dimethylamino)but-2-enoyl)piperidin-3-yl)-4-oxo-4,5-dihydro-3H-1-thia-3,5,8-triazaacenaphthylene-2-carboxamide], the “BTK_I_binding pIC50” value is reported as 7.2.
In the case of C=CC(=O)N1CCC[C@@H](NC(=O)c2sc3nccc4c3c2NC(=O)N4c2ccc(OC(C)C)cc2)C1 [Example 400, (R)—N-(1-Acryloylpiperidin-3-yl)-5-(4-isopropoxyphenyl)-4-oxo-4,5-dihydro-3H-1-thia-3,5,8-triazaacenaphthylene-2-carboxamide], the “BTK_I_binding pIC50” value is reported as 6.9.
For Cc1cc(Oc2ccccc2)ccc1N1C(=O)Nc2c(C(=O)N[C@@H]3CNC(=O)C3)sc3nccc1c23 (single isomer, unassigned) [Example 469, (*S)-5-(*S)-(2-Methyl-4-phenoxyphenyl)-4-oxo-N-(5-oxopyrrolidin-3-yl)-4,5-dihydro-3H-1-thia-3,5,8-triazaacenaphthylene-2-carboxamide], the “BTK_I_binding pIC50” value was 7.1.
With O=C(N[C@H]1CNC[C@@H]1F)c1sc2nccc3c2c1NC(=O)N3c1ccc(Oc2ccccc2)cc1 [Example 579, N-((3S,4S)-4-Fluoropyrrolidin-3-yl)-4-oxo-5-(4-phenoxyphenyl)-4,5-dihydro-3H-1-thia-3,5,8-triazaacenaphthylene-2-carboxamide] the “BTK_I_binding pIC50” value was 6.9.

Same assay, conditions: unphosphorylated-BTK kinase domain, 50 nM Tracer 236, 60 minutes; pIC50 = negative log of the IC50 in molar; read-out: BTK_I_binding pIC50 (converted)
[2H]c1c([2H])c([2H])c(Oc2ccc(N3C(=O)Nc4c(C(=O)N[C@@H]5CCN(C(=O)C=C)C5)sc5nccc3c45)c(C)c2)c([2H])c1[2H] [Example 376, (R)—N-(1-Acryloylpyrrolidin-3-yl)-5-(2-methyl-4-(2,3,4,5,6-pentadeuteriophenoxy)phenyl)-4-oxo-4,5-dihydro-3H-1-thia-3,5,8-triazaacenaphthylene-2-carboxamide] showed an IC50 of 15.8 nM.
